Measured values from patent US12616753B2, “HSP70 inhibitors and methods of using same” (THE WISTAR INSTITUTE, priority 2020, dated 2026).

Legend:
MC38 tumors = assay: Flow cytometric immunophenotyping of MC38 tumors; format: in vivo, mouse; conditions: 10 mg/kg every 48 hours, 20 days
Procedure: FIG. 6A: 1×10^6 MC38 cells were injected subcutaneously into the right flank of 6-8-week-old male C57Bl/6 mice. Once tumors reached an approximate volume of 100 mm^3, mice were treated with AP-4-139B (10 mg/kg) every 48 hours. 20 days after the start of treatment, tumors were excised, weighed, minced and digested. Tumor-infiltrating and splenic conventional CD4 (cCD4) (Live CD45^+ DUMP^− CD3^+CD4^+Foxp3^−), Tregs (Live CD45^+ DUMP^− CD3^+CD4^+Foxp3^+), CD8 (Live CD45^+ DUMP^− CD3^+CD8^+) T-cells, and Dendritic Cells (Live CD45^+ DUMP^− CD3^−CD11c^+MHCII^+) numbers were assessed by flow cytometry. * p<0.05, n.s. not significant. n=8 mice per group. FIG. 6B: MC38 and HT-29 cells were treated with the indicated concentrations of AP-4-139B for either 8 or 24 hours; media was collected and subjected to WB for HMGB1. Data shown are representative of three technical replicates. FIG. 6C: MC38 and HT-29 cells were treated with the indicated concentrations of AP-4-139B for three hours and then assayed for extracellular ATP release. […]
Tumors were excised, weighed with an electronic scale, minced and digested in 5 mL HBSS containing 1 mg/ml Type 1 Collagenase from Clostridium histolyticum (Sigma-Aldrich) for 30 minutes at 37° C. […] Samples were analyzed using FACSymphony A3 (BD Biosciences) flow cytometer equipped with 5 lasers. Data were analyzed using FlowJo Version 10 and GraphPad Prism software.

HT-29 tumor xenografts = assay: HT-29 tumor xenograft in NSG mice; format: in vivo; conditions: 12.5 mg/kg three times per week
Procedure: FIGS. 4A-4F show AP-4-139B is efficacious as a single agent against human CRC in vitro and in vivo. FIG. 4A: Three CRC cell lines (HT-29, LS411N, and SW620) were treated with 10 μM of PET-16 or AP-4-139B for 48 hours. Cell were then subjected to viability assays using Trypan Blue exclusion. *** p<0.001. […] FIGS. 4B-4C: A panel of six CRC cell lines (SW620, HT-29, HCT 116+/−p53, RKO, and LS411N) were plated at a density of 1,000 cells per well in 96-well plates. The next day, cells were treated with the indicated inhibitors for 72 hours. Cells were then subjected to the Alamar Blue cell viability assays. Shown are representative IC50 values of an average of six technical replicates and two biological replicates. FIG. 4D: 2.5×10^6 HT-29 cells were injected subcutaneously into the right flank of NSG mice. Once tumors reached an approximate volume of 100 mm^3, mice were separated randomly into two groups: control vs. AP-4-139B. Mice were treated with 12.5 mg/kg AP-4-139B three times a week. All mice were euthanized 22 days after the start of treatment. Tumor volumes were recorded using digital calipers and using the formula v=length×width^2×0.52. *** p<0.001. n=10 mice per group. FIG. 4E: Immunohistochemistry (IHC) analysis of HT-29 xenograft tumors treated with AP-4-139B. Shown are representative images (4-6 random fields of view per condition) of Ki67 (proliferation) and Cleaved Lamin A (cell death). n=4 mice per group. Scale bar=100 μm. Respective IgG antibody was used as the negative control.
FIGS. 8A-8E show HSP70 inhibition is effective on mouse CRC cell lines. FIG. 8A: Association of HSPA1A gene expression and survival rate of patients with colorectal adenocarcinoma (COAD). Patient data was gathered from USCS Xena platform (GDC-TCGA COAD; n=435). Log-rank test was used to determine significance. p=0.0004. FIG. 8B: Association of HSPA1A gene expression and stage of COAD (n=440). Wilcoxon rank sum test was used to determine significance. * p<0.05, *** p<0.001. FIG. 8C: Body weights of mice injected with HT-29 tumor xenografts. Weights were measured at the start of the treatment to determine mouse toxicity. n.s. not significant, n=10 mice per group. FIG. 8D: H&E staining of livers and colons of mice injected with HT-29 tumor xenografts. Tissues were collected at the end of the study. FIG. 8E. Pharmacokinetic values of AP-4-139B in the liver, plasma, and brain from three CDI mice treated with 10 mg/kg of compound.
Shown are representative images of COXIV and a-SMA. n=5 mice per group. Scale bar=100 μm.
All studies were carried out in accordance with the recommendations in the Guide for the Care and Use of Laboratory Animals of the National Institutes of Health (NIH). All protocols were approved by The Wistar Institute Institutional Animal Care and Use Committee (IACUC). Mice were housed in plastic cages with ad libitum diet and maintained with a 12-hour dark/12-hour light cycle at 22° C. For human xenograft studies, 2.5×10^6 HT-29 cells were injected subcutaneously into the right flanks of 6-8 week old male NSG (NOD.Cg-Prkdcscid II2rgtm1 Wjl/SzJ) mice. For mouse xenograft studies, 1×10^6 MC38 cells were subcutaneously into the right flanks of 6-8 week old male C57Bl/6J mice. Tumor volumes were measured using digital calipers and tumor volume was calculated using the formula: volume=(length×width^2)×0.52. All mice were monitored daily for signs of pain or distress.

c1ccc(-c2cn3nc(CCCCCC[P+](c4ccccc4)(c4ccccc4)c4ccccc4)sc3n2)cc1 [AP-4-139B, Triphenyl(6-(6-phenylimidazo[2,1-b][1,3,4]thiadiazol-2-yl)hexyl)phosphonium bromide]
abundance of immune cell types in spleens (MC38 tumors): no changes in abundance | immune cell infiltrates (CD4+ T cell, CD8+ T cell, dendritic cells, Tregs) in tumors (MC38 tumors): significantly increased immune cell infiltrates | Ki-67 staining in tumors (HT-29 tumor xenografts): reduced staining for Ki-67 | cleaved lamin A staining in tumors (apoptosis) (HT-29 tumor xenografts): increased staining for cleaved lamin A | loss of mitochondria in treated tumors (COX IV staining) (HT-29 tumor xenografts): No evidence was found that AP-4-139B caused obvious loss of mitochondria | progression of HT-29 tumor xenografts (HT-29 tumor xenografts): significantly reduced the progression of HT-29 tumor xenografts | toxicity (weight loss, liver or colon architecture) (HT-29 tumor xenografts): No evidence for toxicity
